Tests used:
[1] = system: limulus amoebocyte lysate (LAL); test: Chromogenic Limulus Amoebocyte Lysate (LAL) endotoxicity test; format: biochemical; conditions: for LAL activity in EU/mg: mean ± standard deviation
Description: Endotoxicity was determined by a chromogenic Limuls Amoebocyte Lysate test (Chromogenic LAL of Charles River Endosafe, batch # EK412E, Charleston, USA). This test is based on activation by a lipopolysaccharide (LPS) or structurally analogous products, of an enzymatic cascade present in LAL.
The enzymatic reaction is conducted at 37° C. and the time-course chromogen formation is measured at 405 nm. In the final stage of this time-course determination assay, the time required to achieve an OD of 0.2 unit is recorded and the endotoxic activity is calculated based on an LPS standard (standard curve).
Results are expressed in EU (Endotoxin Unit) in relation to a standardized preparation of E. coli lipolysaccharides. For this series of assays, 1 EU corresponds to […] of LPS equivalent.
It is mandatory to compare the quantitative assay of the pyrogen content with a given well standardized single series of experiments.

murine macrophage cells = test: Nitric oxide production in supernatants of macrophage cultures (Griess); format: cell-based, C57/BL6 mice; conditions: 22 hours incubation, Griess reagent; FIG. 2
Description: Two six-week old male C57/BL6 mice were killed by CO2 inhalation followed by cervical dislocation. The mice were washed with alcohol, and the skin of the posterior members was entirely removed. The hip, the femur and the tibia bones were removed by joint disruption. The flesh was grossly removed using a scalpel. The bones were cleaned and the bone ends were cut with scissors. The marrrow was aspirated by injecting three times 1 ml of Dulbecco's Modified Eagle Medium (DH medium) in the bone lumen. The cells were resuspended in DH medium and centrifuged at 300×g for 5 minutes. The supernatant fluid was discarded and the cells were resuspended at a density of 40 000 cells/ml in DH medium supplemented with 20% horse serum (HS) and 30% L929 culture supernatant. L929 is a murine fibroblast cell line the supernatant fluid of which is rich in growth factor for macrophage (M-CSF). […]
After 22 hours, the microtiter plates were centrifuged, 5 minutes at 400×g and 100 μl of supernatant fluid were withdrawn and transferred into a microtiter plate. […] The microtiter plates were read with a spectrophotometer at 562 nm wavelength against a reference at 690 nm. […]
The results are expressed as mean±standard deviation after deduction of the negative control value and plotted as a dose versus response curve.

[2] = system: Pb CS His6-242-310 antigen; test: Murine immunization with Pb CS His6-242-310 peptide: specific antibody titer (ELISA); format: in vivo, BALB/c mice; conditions: 0.05 mg adjuvant + 0.02 mg antigen s.c.; for serological response following three shots: ELISA 2 weeks after third shot, FIG. 15; for anti-Pb CS His6-242-310 antibody titer after one single shot: ELISA 3 weeks after first shot, FIG. 13; for serological response after two shots: ELISA 4 weeks after second shot, FIG. 14
Description: Antigen: Pb CS([…] Chem., 8: (1979) 350–341).
Serum sampling: Blood sampling is conducted at weeks 0, 3, 7 and 9. Blood is allowed to stand for 6 min. at 37° C., then is kept overnight at 4° C. Serum is subsequently frozen at −80° C. until time of antibody assay.
Assay of antibodies specifically raised against Pb Cs His6 242-310 antigen is performed by ELISA. Binding of antigen is done in 96-well microtiter plates (Maxisorp F96, Nunc, DK) by conducting overnight incubation in a moist chamber at 4° C. with each well containing 0.1 ml of PBS (phosphate buffered saline) containing 0.001 mg/ml of Pb CS His6242-310 antigen. Blocking of the microtiter plate is performed with PBS containing 1% of bovine serum albumin (BSA, Fluka, Switzerland). Plates are washed with PBS containing 0.05% Tween 20 (Sigma, St. Louis, Mo., USA). Serum samples collected at 0, 3, 7 and 9 weeks are serially diluted with dilution buffer (PBS containing 2.5% of skimmed milk powder and 0.05% of Tween 20), then transferred into a microtiter plate and allowed to stand for 1 hr. at room temperature (RT). Plates are then washed with PBS, a diluted solution containing mouse polyclonal anti-immunoglobulin coupled to alkaline phosphatase (Sigma, St. Louis, Mo., USA) is then dispensed into those plates and incubated for 1 hr. at RT. […] Absorbance at 405 nm is read with a microtiter plate reader (Dynatech 25000 ELISA reader, Ashford, Middlesex, UK), each serum sample is measured in duplicate. Results stand for the mean of all measurements relating to mice in each group.

H1N1 antigen = test: Subcutaneous immunization with H1N1 antigen: specific serum immunoglobulins (ELISA); format: in vivo, BALB/c mice; conditions: for Immunoglobulins specifically raised against H1N1 of IgG1 subclass / Immunoglobulins specifically raised against H1N1 of IgG2a subclass / Immunoglobulins specifically raised against H1N1 of IgM subclass: s.c. injections days 0 and 14, H1N1 2.5 μg, adjuvant 50 μg per injection, ± SD; for adjuvant effect on titer of antibodies specifically raised against H1N1: after one or two injections, FIGS. 22-24
[3] = system: Pb CS 245-252 T-cell epitope; test: Murine immunization with Pb CS His6-242-310 peptide: CTL response (γ IFN ELISPOT); conditions: 0.05 mg adjuvant + 0.02 mg antigen s.c.; FIGS. 17-20

CCCCCCCCCCCC(=O)O[C@H](CCCCCCCCCCC)CC(=O)NC(CCOP(=O)(O)O)C(=O)NCCCC(COP(=O)(O)O)NC(=O)C[C@H](O)CCCCCCCCCCC (stereo partly drawn) [OM-294-DP, 3-[(R)-3-dodecanoyloxytetradecanoylamino]-4-oxo-5-aza-9-[(R)-3-hydroxytetradecanoylamino]decan-1,10-diol 1, 10-bis(dihydrogenphosphate)]
LAL activity in LPS equivalents [1]: 6.2 ng eq. LPS/mg | LAL activity in EU/mg [1]: 56 ± 48 EU/mg | production of nitric oxide by murine macrophage cells (murine macrophage cells): to a much greater extent than E. coli LPS | serological response following three shots [2]: greater than that of IFA | anti-Pb CS His6-242-310 antibody titer after one single shot [2]: almost as high as the response observed with Incomplete Freund's Adjuvant (IFA) | serological response after two shots [2]: greater than that of IFA | Immunoglobulins specifically raised against H1N1 of IgG1 subclass (H1N1 antigen; Day 14): 59 ± 21 Arbitrary units/ml | Immunoglobulins specifically raised against H1N1 of IgG2a subclass (H1N1 antigen; Day 14): 452 ± 584 Arbitrary units/ml | Immunoglobulins specifically raised against H1N1 of IgM subclass (H1N1 antigen; Day 14): 20756 ± 7160 Arbitrary units/ml | Immunoglobulins specifically raised against H1N1 of IgG1 subclass (H1N1 antigen; Day 28): 38 ± 25 Arbitrary units/ml | Immunoglobulins specifically raised against H1N1 of IgG2a subclass (H1N1 antigen; Day 28): 782 ± 857 Arbitrary units/ml | Immunoglobulins specifically raised against H1N1 of IgM subclass (H1N1 antigen; Day 28): 20944 ± 9065 Arbitrary units/ml | adjuvant effect on titer of antibodies specifically raised against H1N1 (H1N1 antigen): significantly increase the titer of antibodies specifically raised against H1N1 | CTL activity of lymphocytes from spleen and inguinal lymph nodes (γ IFN spots) [3]: clearly superior to the one induced by IFA

CCCCCCCCCCCC(=O)O[C@H](CCCCCCCCCCC)CC(=O)NC(CCOP(=O)(O)O)C(=O)NCCCC(CO)NC(=O)C[C@H](O)CCCCCCCCCCC (stereo partly drawn) [OM-294-MP, 3-[(R)-3-dodecanoyloxytetradecanoylamino]-4-oxo-5-aza-9-[(R)-3-hydroxytetradecanoylamino]-decane-1,10-diol 1-dihydrogenphosphate]
LAL activity in LPS equivalents [1]: 1.4 ng eq. LPS/mg | LAL activity in EU/mg [1]: 13 ± 2 EU/mg | production of nitric oxide by murine macrophage cells (murine macrophage cells): weaker response | serological response following three shots [2]: greater than that of IFA | anti-Pb CS His6-242-310 antibody titer after one single shot [2]: almost as high as the response observed with Incomplete Freund's Adjuvant (IFA) | serological response after two shots [2]: greater than that of IFA | Immunoglobulins specifically raised against H1N1 of IgG1 subclass (H1N1 antigen; Day 14): 69 ± 34 Arbitrary units/ml | Immunoglobulins specifically raised against H1N1 of IgG2a subclass (H1N1 antigen; Day 14): 1619 ± 743 Arbitrary units/ml | Immunoglobulins specifically raised against H1N1 of IgM subclass (H1N1 antigen; Day 14): 19065 ± 4069 Arbitrary units/ml | Immunoglobulins specifically raised against H1N1 of IgG1 subclass (H1N1 antigen; Day 28): 59 ± 31 Arbitrary units/ml | Immunoglobulins specifically raised against H1N1 of IgG2a subclass (H1N1 antigen; Day 28): 1767 ± 1034 Arbitrary units/ml | Immunoglobulins specifically raised against H1N1 of IgM subclass (H1N1 antigen; Day 28): 18018 ± 1016 Arbitrary units/ml | adjuvant effect on titer of antibodies specifically raised against H1N1 (H1N1 antigen): significantly increase the titer of antibodies specifically raised against H1N1 | CTL activity of lymphocytes from spleen and inguinal lymph nodes (γ IFN spots) [3]: clearly superior to the one induced by IFA
